Experiment [1] has as its system Escherichia coli C 165. The experiment in a line: ED100 in mice after intraperitoneal infection, Table 3. In kind it is in vivo. Particulars: read-out: effective 100% dose (ED100). How it is done: In animal experiments on mice, the effective 100% dose (ED100) in mg/Kg was determined for certain compounds of the invention after intraperitoneal infection and subcutaneous (s.c.) or oral (p.o.) administration of the preparation.

Experiment [2] deals with Proteus vulgaris species. Put plainly: MIC in vitro, plate test (agar), Table 1. In kind it is cell-based. As to conditions: about 37° C, readings 24 and 48 h. How it is done: The minimum inhibitory concentrations in vitro for some of the new compounds shown in Table 1 (MIC) were determined by the plate test in an agar medium of the following composition: |proteose peptone 10.0 g per liter |5.1 × 10^3 germs were inoculated per plate. […]. Readings were taken after 24 and 48 hours, and the incubation temperature was about 37° C.

The subject of experiment [3] is Mycoplasma bovirhinis. Put plainly: MIC, series dilution test (PPLO medium). In kind it is cell-based. Particulars: 37° C, 18, 24 and 48 h, read-out: minimal inhibitory concentrations (MIC). As to the method: (§1) For the compound of Example 3, the following minimal inhibitory concentrations (MIC) (γ/ml of nutrient medium) were measured by the series dilution test (PPLO medium), incubation temperature 37° C, determination after 18, 24 and 48 hours.

Experiment [4] deals with Mycoplasma gallisepticum. The experiment in a line: MIC, series dilution test (PPLO medium). In kind it is cell-based. As to conditions: Mycoplasmoides gallisepticum, 37° C, 18, 24 and 48 h, read-out: minimal inhibitory concentrations (MIC). How it is done: as §1
The test system of experiment [5] is Mycoplasma granularum. Put plainly: MIC, series dilution test (PPLO medium). As to conditions: Acholeplasma granularum, 37° C, 18, 24 and 48 h, read-out: minimal inhibitory concentrations (MIC). In kind it is cell-based. How it is done:
as §1

Each structure is given as a SMILES string. ≈ marks a conversion by molar mass, not a printed value. Where two headings read alike, the source gives them in different places.

On to `O=C(O)c1c(C=NCCO)[n+]([O-])c2ccccc2[n+]1[O-]` [Example 8], for which the ED100 was determined as 100 mg/kg in experiment [1] (C165, oral (p.c. [sic])) and 50 mg/kg in experiment [1] (C165, sc, s.c.).

`NC(=O)NN=Cc1c(C(=O)O)[n+]([O-])c2ccccc2[n+]1[O-]` [Example 12]: in experiment [2], the MIC was found to be 150 µg/mL (≈ 515 µM).

Take `CN=Cc1c(C(=O)O)[n+]([O-])c2ccccc2[n+]1[O-]` [Example 3]: the results for the MIC in experiment [3], in experiment [4] and in experiment [5] were 200 µg/mL (≈ 809 µM), 100 µg/mL (≈ 405 µM) and 25 µg/mL (≈ 101 µM), respectively. Also, the ED100 was determined as 100 mg/kg in experiment [1] (C165, oral (p.c. [sic])) and 50 mg/kg in experiment [1] (C165, sc, s.c.).

For the origin of these results see patent US3984547A, “Veterinary feedstuffs” (Bayer Aktiengesellschaft, priority 1971, dated 1976).
